From US8552013B2, “Heterocyclic compounds based on N6-substituted adenine, methods of their preparation, their use for preparation of drugs, cosmetic preparations and growth regulators, pharmaceutical preparations, cosmetic preparations and growth regulators containing these compounds” (USTAV Experimentalni Botaniky Akademie Ved Ceske Republiky, priority 2001, dated 2013) come the findings set out here.

The subject of this experiment is human skin fibroblasts. The experiment can be described thus: beta-galactosidase staining of treated skin fibroblasts. The format is cell-based. The note with it: short-term growth treatment.

Take `Oc1ccccc1CNc1ncnc2nc[nH]c12` [ortho-topolin, 6-(2-hydroxybenzylamino)purine]: the “number of prematurely senescent cells, beta-galactosidase staining” value is recorded as “did not show any increase”.
